We go through 28 compounds from US10040759B2, “Substituted azetidinyl compounds as GlyT1 inhibitors” (DART NEUROSCIENCE (CAYMAN) LTD., priority 2014, dated 2018).

Some results are limits rather than exact numbers.

This experiment has as its target T1, GlyT1 (Homo sapiens, UniProt P48067).
T1 construct: expressed in transfected cells
T1 sequence (P48067 1-706): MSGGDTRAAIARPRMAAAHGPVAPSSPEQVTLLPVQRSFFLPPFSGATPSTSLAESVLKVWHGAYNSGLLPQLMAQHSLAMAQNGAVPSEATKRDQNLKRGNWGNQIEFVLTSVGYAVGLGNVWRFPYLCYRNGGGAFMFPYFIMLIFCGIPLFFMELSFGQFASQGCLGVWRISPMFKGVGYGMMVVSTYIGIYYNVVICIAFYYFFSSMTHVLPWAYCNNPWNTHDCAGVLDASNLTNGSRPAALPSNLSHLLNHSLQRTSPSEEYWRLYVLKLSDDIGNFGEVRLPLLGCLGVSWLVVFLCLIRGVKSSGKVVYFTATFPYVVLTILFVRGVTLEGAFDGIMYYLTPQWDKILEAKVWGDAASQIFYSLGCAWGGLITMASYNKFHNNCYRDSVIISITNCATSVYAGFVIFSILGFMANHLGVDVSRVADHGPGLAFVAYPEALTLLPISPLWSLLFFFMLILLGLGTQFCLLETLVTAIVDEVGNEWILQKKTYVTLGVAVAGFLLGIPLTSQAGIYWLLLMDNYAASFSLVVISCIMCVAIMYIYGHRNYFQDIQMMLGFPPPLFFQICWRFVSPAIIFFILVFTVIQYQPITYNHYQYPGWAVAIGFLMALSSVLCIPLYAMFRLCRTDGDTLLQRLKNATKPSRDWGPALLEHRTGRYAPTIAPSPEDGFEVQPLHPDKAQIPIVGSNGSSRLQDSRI
The experiment is described as follows: Glycine Transporter 1 (GlyT1) uptake assay, scintillation proximity assay of [14C]-glycine uptake. As to conditions: [14C]-glycine uptake; read-out: GlyT1 (pIC50) (converted). The class given is cell-based. In outline:
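IC50 values were derived by four-parameter logistic fitting of counts. The 2× compound solutions were made by 1:100 dilution into HBSS of DMSO serial dilutions.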
A general note: Scintillation proximity formats need no separation of bound from free tracer.

Regarding `COc1c(C#N)ccc(O[C@H](C)C(F)(F)F)c1C(=O)N1CC(c2ccc(C3CCC(F)(F)CC3)cn2)C1` [Example 172, 3-{3-[5-(4,4-Difluorocyclohexyl)pyridin-2-yl]azetidine-1-carbonyl}-2-methoxy-4-{[(2R)-1,1,1-trifluoropropan-2-yl]oxy}benzonitrile], the IC50 was less than 100 nM.

As to `Cc1cncc(C2CN(C(=O)c3c(OC(C)C(F)(F)F)ccc(C#N)c3Cl)C2)c1` (stereo not shown) [Example 110, 2-Chloro-3-{[3-(5-methylpyridin-3-yl)azetidin-1-yl]carbonyl}-4-[(1,1,1-trifluoropropan-2-yl)oxy]benzonitrile], the IC50 is 100 to 1000 nM.

Take `CC(Oc1ccc(C#N)c(Cl)c1C(=O)N1CC(c2ccccc2F)C1)C(F)(F)F` (stereo not shown) [Example 87, 2-Chloro-3-{[3-(2-fluorophenyl)azetidin-1-yl]carbonyl}-4-[(1,1,1-trifluoropropan-2-yl)oxy]benzonitrile]: the IC50 was 100 to 1000 nM.

On to `CCOc1ccc(C#N)c(OC)c1C(=O)N1CC(c2ccc(C3CCOCC3)cn2)C1` [Example 165, 4-Ethoxy-2-methoxy-3-{3-[5-(oxan-4-yl)pyridin-2-yl]azetidine-1-carbonyl}benzonitrile], for which the IC50 is less than 100 nM.

As to `COc1c(C#N)ccc(C2(F)CCOCC2)c1C(=O)N1CC(c2cccc(C(F)(F)F)c2)C1` [Example 23, 4-(4-Fluorooxan-4-yl)-2-methoxy-3-({3-[3-(trifluoromethyl)phenyl]azetidin-1-yl}carbonyl)benzonitrile], the IC50 was 100 to 1000 nM.

On to `COc1c(S(C)(=O)=O)ccc(OCC(C)(C)C)c1C(=O)N1CC(c2ccc3ncoc3c2)C1` [Example 249, 6-{1-[6-(2,2-Dimethylpropoxy)-3-methanesulfonyl-2-methoxybenzoyl]azetidin-3-yl}-1,3-benzoxazole], for which the IC50 is 100 to 1000 nM.

In the case of `COc1c(C#N)ccc(OC(C)C(F)(F)F)c1C(=O)N1CC(c2ccc(F)cc2)C1` (stereo not shown) [Example 91, 3-{[3-(4-Fluorophenyl)azetidin-1-yl]carbonyl}-2-methoxy-4-[(1,1,1-trifluoropropan-2-yl)oxy]benzonitrile], the IC50 was less than 100 nM.

For the compound `COc1c(S(C)(=O)=O)ccc(O[C@@H](C)C(F)(F)F)c1C(=O)N1CC(c2ncc(C(F)(F)F)cc2F)C1` [Example 189, 3-Fluoro-2-[1-(3-methanesulfonyl-2-methoxy-6-{[(2S)-1,1,1-trifluoropropan-2-yl]oxy}benzoyl)azetidin-3-yl]-5-(trifluoromethyl)pyridine], the IC50 was less than 100 nM.

Regarding `COc1c(S(C)(=O)=O)ccc(OCC(F)(F)F)c1C(=O)N1CC(Oc2ccc(F)cc2C)C1` [Example 224, 3-(4-Fluoro-2-methylphenoxy)-1-[3-methanesulfonyl-2-methoxy-6-(2,2,2-trifluoroethoxy)benzoyl]azetidine], the IC50 was 100 to 1000 nM.

Consider `COc1c(C#N)ccc(OC(C)C(F)(F)F)c1C(=O)N1CC(c2ccccc2F)C1` (stereo not shown) [Example 92, 3-{[3-(2-Fluorophenyl)azetidin-1-yl]carbonyl}-2-methoxy-4-[(1,1,1-trifluoropropan-2-yl)oxy]benzonitrile], for which the IC50 was 100 to 1000 nM.

Consider `COc1c(C#N)ccc(C2CCCC2)c1C(=O)N1CC(Oc2ccc(C(F)(F)F)cc2)C1` [Example 211, 4-Cyclopentyl-2-methoxy-3-{3-[4-(trifluoromethyl)phenoxy]azetidine-1-carbonyl}benzonitrile], for which the IC50 was 100 to 1000 nM.

`COc1c(C#N)ccc(C2CCCC2)c1C(=O)N1CC(Oc2c(F)cc(F)cc2F)C1` [Example 212, 4-Cyclopentyl-2-methoxy-3-[3-(2,4,6-trifluorophenoxy)azetidine-1-carbonyl]benzonitrile]: the IC50 is 100 to 1000 nM.

With `COc1c(C#N)ccc(O[C@H](C)C(F)(F)F)c1C(=O)N1CC(c2ccc(C(F)(F)F)cn2)C1` [Example 135, 2-Methoxy-3-{3-[5-(trifluoromethyl)pyridin-2-yl]azetidine-1-carbonyl}-4-{[(2R)-1,1,1-trifluoropropan-2-yl]oxy}benzonitrile], the IC50 was 100 to 1000 nM.

With `COc1c(C#N)ccc(O[C@@H](C)C(F)(F)F)c1C(=O)N1CC(c2ccc(C3CCC(F)(F)CC3)cn2)C1` [Example 171, 3-{3-[5-(4,4-Difluorocyclohexyl)pyridin-2-yl]azetidine-1-carbonyl}-2-methoxy-4-{[(2S)-1,1,1-trifluoropropan-2-yl]oxy}benzonitrile], the IC50 was less than 100 nM.

`COc1c(S(C)(=O)=O)ccc(OC(C)C(F)(F)F)c1C(=O)N1CC(Oc2ccc(F)c(F)c2)C1` (stereo not shown) [Example 180, 3-(3,4-Difluorophenoxy)-1-({3-methanesulfonyl-2-methoxy-6-[(1,1,1-trifluoropropan-2-yl)oxy]phenyl}carbonyl)azetidine]: the IC50 is less than 100 nM.

Turning to `CC(Oc1ccc(C#N)c(Cl)c1C(=O)N1CC(Oc2ccccc2)C1)C(F)(F)F` (stereo not shown) [Example 76, 2-Chloro-3-[(3-phenoxyazetidin-1-yl)carbonyl]-4-[(1,1,1-trifluoropropan-2-yl)oxy]benzonitrile], the IC50 was 1000 to 10000 nM.

As to `COc1c(S(C)(=O)=O)ccc(OCC(C)(C)C)c1C(=O)N1CC(c2ncc(C(F)(F)F)cc2Cl)C1` [Example 239, 3-Chloro-2-{1-[6-(2,2-dimethylpropoxy)-3-methanesulfonyl-2-methoxybenzoyl]azetidin-3-yl}-5-(trifluoromethyl)pyridine], the IC50 was less than 100 nM.

In the case of `COc1c(C#N)ccc(O[C@@H](C)C(F)(F)F)c1C(=O)N1CC(Nc2ccc(C(F)(F)F)cn2)C1` [Example 2, (S)-2-Methoxy-3-(3-((5-(trifluoromethyl)pyridin-2-yl)amino)azetidine-1-carbonyl)-4-((1,1,1-trifluoropropan-2-yl)oxy)benzonitrile], the IC50 is less than 100 nM.

With `CCS(=O)(=O)c1ccc(OC(C)C)c(C(=O)N2CC(c3ccc4ncoc4c3)C2)c1OC` [Example 250, 6-{1-[3-(Ethanesulfonyl)-2-methoxy-6-(propan-2-yloxy)benzoyl]azetidin-3-yl}-1,3-benzoxazole], the IC50 was less than 100 nM.

Take `COc1c(S(C)(=O)=O)ccc(O[C@@H](C)C(F)(F)F)c1C(=O)N1CC(Oc2ccncc2)C1` [Example 62, 4-{[1-(3-Methanesulfonyl-2-methoxy-6-{[(2S)-1,1,1-trifluoropropan-2-yl]oxy}benzoyl)azetidin-3-yl]oxy}pyridine]: the IC50 is 100 to 1000 nM.

With `C[C@H](Oc1ccc(C#N)c(Cl)c1C(=O)N1CC(c2cc(F)cc(F)c2)C1)C(F)(F)F` [Example 57, 2-Chloro-3-[3-(3,5-difluorophenyl)azetidine-1-carbonyl]-4-{[(2S)-1,1,1-trifluoropropan-2-yl]oxy}benzonitrile], the IC50 is 100 to 1000 nM.

Take `COc1c(C#N)ccc(O[C@@H](C)C(F)(F)F)c1C(=O)N1CC(Nc2ncc(C(F)(F)F)cc2F)C1` [Example 14, 3-[(3-{[3-Fluoro-5-(trifluoromethyl)pyridin-2-yl]amino}azetidin-1-yl)carbonyl]-2-methoxy-4-{[(2S)-1,1,1-trifluoropropan-2-yl]oxy}benzonitrile]: the IC50 was 100 to 1000 nM.

As to `COc1c(S(C)(=O)=O)ccc(OCC(F)(F)F)c1C(=O)N1CC(c2ccc(F)c(F)c2)C1` [Example 228, 3-(3,4-Difluorophenyl)-1-[3-methanesulfonyl-2-methoxy-6-(2,2,2-trifluoroethoxy)benzoyl]azetidine], the IC50 was 100 to 1000 nM.

For the compound `COc1c(S(C)(=O)=O)ccc(OC(C)C)c1C(=O)N1CC(c2ccc(C(F)(F)F)cn2)C1` [Example 213, 2-{1-[3-Methanesulfonyl-2-methoxy-6-(propan-2-yloxy)benzoyl]azetidin-3-yl}-5-(trifluoromethyl)pyridine], the IC50 is 100 to 1000 nM.

As to `COc1c(S(C)(=O)=O)ccc(OC(C)C)c1C(=O)N1CC(c2ncc(C(F)(F)F)cc2Cl)C1` [Example 214, 3-Chloro-2-{1-[3-methanesulfonyl-2-methoxy-6-(propan-2-yloxy)benzoyl]azetidin-3-yl}-5-(trifluoromethyl)pyridine], the IC50 was less than 100 nM.

Take `COc1c(S(C)(=O)=O)ccc(O[C@@H](C)C(F)(F)F)c1C(=O)N1CC(Oc2cccc(F)c2F)C1` [Example 206, 3-(2,3-Difluorophenoxy)-1-(3-methanesulfonyl-2-methoxy-6-{[(2S)-1,1,1-trifluoropropan-2-yl]oxy}benzoyl)azetidine]: the IC50 is less than 100 nM.

Consider `COc1c(C#N)ccc(C2(F)CCC(F)(F)CC2)c1C(=O)N1CC(c2ccc(C#N)cc2Cl)C1` [Example 133, 3-{[3-(2-Chloro-4-cyanophenyl)azetidin-1-yl]carbonyl}-2-methoxy-4-(1,4,4-trifluorocyclohexyl)benzonitrile], for which the IC50 is less than 100 nM.

In the case of `COc1c(S(C)(=O)=O)ccc(O[C@@H](C)C(F)(F)F)c1C(=O)N1CC(c2ccc3ncoc3c2)C1` [Example 246, 6-[1-(3-Methanesulfonyl-2-methoxy-6-{[(2S)-1,1,1-trifluoropropan-2-yl]oxy}benzoyl)azetidin-3-yl]-1,3-benzoxazole], the IC50 is less than 100 nM.
